The values below come from PMC5459845, “Expression and functional analysis of the lysine decarboxylase and copper amine oxidase genes from the endophytic fungus Colletotrichum gloeosporioides ES026” (Scientific Reports, 2017).

For one test, the target named is T1, CgLDC (Colletotrichum gloeosporioides, UniProt A0A1X9J191).
T1 construct: 256 residues, 28 kDa, cDNA 769 bp
T1 sequence (A0A1X9J191 62-294): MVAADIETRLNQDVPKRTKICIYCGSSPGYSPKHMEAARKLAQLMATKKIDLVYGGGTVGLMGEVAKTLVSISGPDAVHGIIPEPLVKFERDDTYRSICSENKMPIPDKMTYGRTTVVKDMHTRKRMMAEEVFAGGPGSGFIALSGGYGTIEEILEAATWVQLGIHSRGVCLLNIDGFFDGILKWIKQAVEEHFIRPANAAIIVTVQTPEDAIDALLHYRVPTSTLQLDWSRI
Kind of test: LC-MS detection of cadaverine (m/z […]). Format: biochemical. The settings on record: pyridoxal phosphate 40 µg, potassium phosphate pH 8.0, 37 °C, 45 min; boiled enzyme as negative control.

A further test addresses T2, CgCAO (Colletotrichum gloeosporioides, UniProt A0A191JKR0).
T2 construct: 672 residues, 76 kDa, cDNA 2072 bp
T2 sequence (A0A191JKR0 1-684): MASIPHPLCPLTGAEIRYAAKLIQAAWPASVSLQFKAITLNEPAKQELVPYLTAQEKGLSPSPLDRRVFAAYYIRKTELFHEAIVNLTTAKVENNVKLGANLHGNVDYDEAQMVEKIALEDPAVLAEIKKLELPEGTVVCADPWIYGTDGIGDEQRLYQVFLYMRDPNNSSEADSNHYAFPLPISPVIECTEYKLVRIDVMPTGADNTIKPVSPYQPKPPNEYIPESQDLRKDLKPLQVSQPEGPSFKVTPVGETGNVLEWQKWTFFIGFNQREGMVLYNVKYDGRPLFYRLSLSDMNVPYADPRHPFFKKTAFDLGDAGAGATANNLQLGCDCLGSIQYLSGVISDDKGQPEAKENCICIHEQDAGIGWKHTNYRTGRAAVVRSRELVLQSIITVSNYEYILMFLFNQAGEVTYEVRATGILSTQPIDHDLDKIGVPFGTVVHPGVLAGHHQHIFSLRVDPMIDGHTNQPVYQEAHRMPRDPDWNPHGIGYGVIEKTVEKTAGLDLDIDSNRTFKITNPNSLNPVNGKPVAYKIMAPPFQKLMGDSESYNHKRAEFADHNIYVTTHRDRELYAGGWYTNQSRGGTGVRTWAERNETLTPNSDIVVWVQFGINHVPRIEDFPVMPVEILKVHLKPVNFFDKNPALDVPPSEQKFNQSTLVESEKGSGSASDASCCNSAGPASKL
Kind of test: LC-MS detection of delta1-piperideine (m/z […]). It counts as biochemical. Conditions: 1 mM cadaverine, 50 mM Tris-HCl pH 8.0, 25 °C, 16 h; boiled enzyme as negative control.

Turning to `NCCCC[C@H](N)C(=O)O` [L-lysine], the “LC-MS detection of cadaverine (m/z 103)” value on CgLDC is reported as “CgLDC catalyzed the conversion of L-lysine to cadaverine”. For the compound `NCCCCCN` [cadaverine], the “LC-MS detection of delta1-piperideine (m/z 84)” value on CgCAO was “CgCAO converted cadaverine to 5-aminopentanal”.
